Values quoted from earlier work, collected in US12378302B2, “Fusion molecules and uses thereof” (Foundation Medicine, Inc., priority 2012, dated 2025).
Where two headings read alike, the source gives them in different places.

Tests used:
[1] = test system: cytokine production such as IL-1, TNF and IL-6; details: clinical trials
MEK1/2 = details: read-out: IC50 against MEK1/2
ALK = ALK (Homo sapiens, UniProt Q9UM73); details: read-out: IC50 ALK
CDK1/2/3/4/7/9 = details: range over the CDKs
[2] = test system: MEK1, MEK2, ERK2, and JNK2
CaMK = details: competitively with ATP
[3] = test system: myeloproliferative disorders
STAT5 phosphorylation [4] = test system: STAT5 phosphorylation
HEL92.1.7 cells [5] = details: read-out: IC50 antiproliferative activity
[6] = test system: myeloproliferative disorders; remark: listed apart in the source
STAT5 phosphorylation [7] = details: read-out: IC50 for prevention of STAT5 phosphorylation
HEL92.1.7 cells [8] = details: read-out: IC50 antiproliferative activity in vitro
c-Met [9] = test system: c-Met
c-Met [10] = target: c-Met (Homo sapiens, UniProt P08581); details: read-out: IC50 against c-Met (WT/mutants)
CSF-1R = CSF-1R (Homo sapiens, UniProt P07333); details: read-out: IC50 against CSF-1R
Sequence of CSF-1R (P07333 20-972, species assumed): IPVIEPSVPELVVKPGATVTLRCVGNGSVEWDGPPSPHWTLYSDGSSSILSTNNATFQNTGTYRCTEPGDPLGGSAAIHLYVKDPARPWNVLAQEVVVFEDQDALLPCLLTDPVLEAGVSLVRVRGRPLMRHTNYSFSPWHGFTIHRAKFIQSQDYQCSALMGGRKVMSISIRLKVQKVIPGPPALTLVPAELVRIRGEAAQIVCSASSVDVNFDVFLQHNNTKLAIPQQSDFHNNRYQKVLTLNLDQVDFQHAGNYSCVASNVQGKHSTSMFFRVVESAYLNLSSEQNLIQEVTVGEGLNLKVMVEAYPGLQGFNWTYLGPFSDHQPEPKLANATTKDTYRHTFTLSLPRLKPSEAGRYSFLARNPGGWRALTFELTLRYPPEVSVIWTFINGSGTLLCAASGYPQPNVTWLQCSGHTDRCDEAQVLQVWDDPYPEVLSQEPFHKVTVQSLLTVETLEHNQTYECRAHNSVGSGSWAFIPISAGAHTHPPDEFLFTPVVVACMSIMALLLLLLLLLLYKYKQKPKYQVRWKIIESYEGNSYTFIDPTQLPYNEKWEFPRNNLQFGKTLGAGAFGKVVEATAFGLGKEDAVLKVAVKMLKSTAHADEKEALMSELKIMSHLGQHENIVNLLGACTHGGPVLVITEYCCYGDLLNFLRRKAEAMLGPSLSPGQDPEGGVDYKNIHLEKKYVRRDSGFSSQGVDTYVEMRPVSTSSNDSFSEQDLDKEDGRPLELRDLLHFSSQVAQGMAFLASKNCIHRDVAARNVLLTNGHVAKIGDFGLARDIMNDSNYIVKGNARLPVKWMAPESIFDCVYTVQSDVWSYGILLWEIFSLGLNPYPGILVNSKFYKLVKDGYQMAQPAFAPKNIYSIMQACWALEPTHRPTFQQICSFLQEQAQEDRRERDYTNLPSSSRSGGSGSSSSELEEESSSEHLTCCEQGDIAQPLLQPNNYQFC

MEK = details: read-out: IC50 against MEK
[11] = test system: CDK1/2/5, EGFR, FGFR, PDGFR, and InsR
[12] = test system: Erk1, MKK3, MKK4, c-JUN, PKC, PKA, or CamKII
MEK1 = MEK1 (Homo sapiens, UniProt Q02750); details: read-out: IC50 against MEK1
Sequence of MEK1 (Q02750 whole entry, species assumed): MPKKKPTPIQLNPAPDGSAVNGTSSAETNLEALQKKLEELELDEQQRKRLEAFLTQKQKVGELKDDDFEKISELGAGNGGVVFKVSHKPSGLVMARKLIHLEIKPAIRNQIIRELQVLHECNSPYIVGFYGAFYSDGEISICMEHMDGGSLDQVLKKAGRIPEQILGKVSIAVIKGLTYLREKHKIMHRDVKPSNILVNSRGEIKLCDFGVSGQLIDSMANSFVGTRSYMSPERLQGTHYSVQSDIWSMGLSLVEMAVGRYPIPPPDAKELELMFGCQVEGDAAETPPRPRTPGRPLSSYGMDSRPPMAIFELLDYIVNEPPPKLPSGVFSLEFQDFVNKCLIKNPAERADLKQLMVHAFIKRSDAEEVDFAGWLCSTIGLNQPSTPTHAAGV

MEK2 = MEK2 (Homo sapiens, UniProt P36507); details: read-out: IC50 against MEK2
Sequence of MEK2 (P36507 whole entry, species assumed): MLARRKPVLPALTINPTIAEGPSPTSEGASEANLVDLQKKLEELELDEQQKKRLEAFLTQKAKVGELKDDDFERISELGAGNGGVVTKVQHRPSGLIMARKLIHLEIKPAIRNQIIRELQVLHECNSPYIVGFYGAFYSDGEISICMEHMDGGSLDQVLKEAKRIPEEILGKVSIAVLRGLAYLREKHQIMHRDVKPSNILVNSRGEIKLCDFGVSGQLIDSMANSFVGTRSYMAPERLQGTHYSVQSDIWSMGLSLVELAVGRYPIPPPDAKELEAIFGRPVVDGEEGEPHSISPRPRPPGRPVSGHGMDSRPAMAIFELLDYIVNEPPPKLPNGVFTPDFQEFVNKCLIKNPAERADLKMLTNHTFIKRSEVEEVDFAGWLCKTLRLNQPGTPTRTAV

[13] = test system: IGF-1R, Met, Src, Lck, Zap70, Abl and CDK2
[14] = test system: Flk-1 and FGFR1 trans-phosphorylation
[15] = test system: Abl1, AKT3, c-RAF, CamK1, CDK2, c-Met
EGFR = EGFR (Homo sapiens, UniProt P00533)
Sequence of EGFR (P00533 25-1210): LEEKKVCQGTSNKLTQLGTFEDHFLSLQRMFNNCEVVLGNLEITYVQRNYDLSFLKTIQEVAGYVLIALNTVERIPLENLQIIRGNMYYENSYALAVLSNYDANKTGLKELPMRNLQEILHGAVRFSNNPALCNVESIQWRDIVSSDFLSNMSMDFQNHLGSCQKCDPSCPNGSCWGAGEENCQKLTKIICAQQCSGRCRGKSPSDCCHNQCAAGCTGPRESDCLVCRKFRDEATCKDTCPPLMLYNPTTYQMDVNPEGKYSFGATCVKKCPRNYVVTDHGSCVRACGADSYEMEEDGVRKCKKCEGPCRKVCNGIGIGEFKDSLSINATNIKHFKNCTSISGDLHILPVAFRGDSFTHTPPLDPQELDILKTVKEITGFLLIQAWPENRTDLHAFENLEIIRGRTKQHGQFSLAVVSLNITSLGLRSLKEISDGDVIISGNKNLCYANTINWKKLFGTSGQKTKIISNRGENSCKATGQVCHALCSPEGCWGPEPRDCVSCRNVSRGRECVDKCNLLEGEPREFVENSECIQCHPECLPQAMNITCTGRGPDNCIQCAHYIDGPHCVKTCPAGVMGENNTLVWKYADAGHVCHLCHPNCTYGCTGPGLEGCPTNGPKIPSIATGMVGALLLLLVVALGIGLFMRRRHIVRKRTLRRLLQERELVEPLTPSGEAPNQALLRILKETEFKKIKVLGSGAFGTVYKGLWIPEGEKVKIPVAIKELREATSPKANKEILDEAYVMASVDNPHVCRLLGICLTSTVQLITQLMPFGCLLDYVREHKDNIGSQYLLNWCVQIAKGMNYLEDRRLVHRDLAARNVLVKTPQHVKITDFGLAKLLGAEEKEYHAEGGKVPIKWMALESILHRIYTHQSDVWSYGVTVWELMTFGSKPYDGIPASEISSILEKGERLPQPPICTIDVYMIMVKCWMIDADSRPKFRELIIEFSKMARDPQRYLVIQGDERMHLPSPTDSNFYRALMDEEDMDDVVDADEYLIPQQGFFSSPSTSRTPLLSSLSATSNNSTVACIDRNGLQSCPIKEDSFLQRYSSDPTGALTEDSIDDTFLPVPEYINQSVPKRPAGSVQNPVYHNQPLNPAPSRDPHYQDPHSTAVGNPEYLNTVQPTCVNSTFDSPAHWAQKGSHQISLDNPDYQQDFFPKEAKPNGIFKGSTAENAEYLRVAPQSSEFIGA

PDGFR = details: read-out: IC50 against PDGFR

Sequence of ALK (Q9UM73 19-1620): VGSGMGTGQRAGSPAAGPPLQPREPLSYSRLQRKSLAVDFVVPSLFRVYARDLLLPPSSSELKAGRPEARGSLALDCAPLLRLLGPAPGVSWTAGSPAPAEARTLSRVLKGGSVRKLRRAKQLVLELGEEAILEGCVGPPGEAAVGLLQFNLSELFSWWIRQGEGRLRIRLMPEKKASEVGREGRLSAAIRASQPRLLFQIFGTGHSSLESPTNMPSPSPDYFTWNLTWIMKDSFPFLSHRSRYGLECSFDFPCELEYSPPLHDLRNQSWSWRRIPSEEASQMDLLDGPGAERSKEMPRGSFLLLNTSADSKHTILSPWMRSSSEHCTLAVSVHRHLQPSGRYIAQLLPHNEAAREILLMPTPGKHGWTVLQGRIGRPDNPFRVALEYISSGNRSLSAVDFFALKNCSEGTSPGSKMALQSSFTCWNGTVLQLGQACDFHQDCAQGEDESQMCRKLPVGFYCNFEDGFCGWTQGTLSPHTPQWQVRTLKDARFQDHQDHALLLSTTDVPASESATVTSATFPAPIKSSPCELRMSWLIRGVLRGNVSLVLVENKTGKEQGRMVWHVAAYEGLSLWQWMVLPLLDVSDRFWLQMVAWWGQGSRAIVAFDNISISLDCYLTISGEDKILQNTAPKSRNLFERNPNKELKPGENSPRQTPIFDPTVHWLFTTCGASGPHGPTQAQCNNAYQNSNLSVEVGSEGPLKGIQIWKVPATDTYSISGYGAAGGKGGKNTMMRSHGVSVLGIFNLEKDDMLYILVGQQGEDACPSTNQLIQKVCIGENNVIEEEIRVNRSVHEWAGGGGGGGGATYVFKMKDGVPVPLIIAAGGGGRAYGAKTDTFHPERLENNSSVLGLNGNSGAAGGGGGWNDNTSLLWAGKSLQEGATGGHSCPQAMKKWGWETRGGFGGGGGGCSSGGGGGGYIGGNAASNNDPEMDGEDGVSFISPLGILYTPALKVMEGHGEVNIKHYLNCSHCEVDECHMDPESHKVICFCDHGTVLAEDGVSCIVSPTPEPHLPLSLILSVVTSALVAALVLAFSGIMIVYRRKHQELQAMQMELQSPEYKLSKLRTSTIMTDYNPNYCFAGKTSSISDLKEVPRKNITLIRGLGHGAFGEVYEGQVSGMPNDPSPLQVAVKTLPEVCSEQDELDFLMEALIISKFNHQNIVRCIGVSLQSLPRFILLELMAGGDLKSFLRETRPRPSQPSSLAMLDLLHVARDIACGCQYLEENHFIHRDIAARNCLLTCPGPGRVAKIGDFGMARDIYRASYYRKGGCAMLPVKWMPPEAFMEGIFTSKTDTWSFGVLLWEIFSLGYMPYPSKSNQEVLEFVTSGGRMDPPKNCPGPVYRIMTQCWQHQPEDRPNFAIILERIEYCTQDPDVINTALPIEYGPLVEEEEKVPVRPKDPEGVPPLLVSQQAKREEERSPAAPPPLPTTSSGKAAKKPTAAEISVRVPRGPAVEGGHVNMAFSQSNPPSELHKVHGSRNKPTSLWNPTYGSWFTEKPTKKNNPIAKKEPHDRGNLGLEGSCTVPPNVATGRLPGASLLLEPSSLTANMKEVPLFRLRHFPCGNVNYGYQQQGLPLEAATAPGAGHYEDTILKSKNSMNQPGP

## Cn1cnc2c(F)c(Nc3ccc(Br)cc3F)c(C(=O)NOCCO)cc21 [ARRY-162, 5-((4-bromo-2-fluorophenyl)amino)-4-fluoro-N-(2-hydroxyethoxy)-1-methyl-1H-benzo[d]imidazole-6-carboxamide]
Cellular pERK
  IC50: 11 nM
[1]
  Ex vivo effect on cytokine production such as IL-1, TNF and IL-6: inhibition
MEK1/2
  IC50: 12 nM

## O=C(NC[C@H](O)CO)c1ccncc1Nc1ccc(I)cc1F [AS-703026, (S)—N-(2,3-dihydroxypropyl)-3-(2-fluoro-4-iodophenylamino) isonicotinamide]
MM cell lines
  IC50: 5 to 2000 nM

## COc1cc(CCc2cc(NC(=O)c3ccc(N4C[C@@H](C)N[C@@H](C)C4)cc3)n[nH]2)cc(OC)c1 [AZD4547, N-(5-(3,5-dimethoxyphenethyl)-1H-pyrazol-3-yl)-4-((3S,5R)-3,5-dimethylpiperazin-1-yl)benzamide]
FGFR4, VEGFR2 (KDR)
  Activity against FGFR4, VEGFR2 (KDR): weaker activity

## COc1cc(N2CCC(N)CC2)ccc1Nc1ncc(Cl)c(-c2c[nH]c3ccccc23)n1 [AZD-3463, 2-Pyrimidinamine, N-[4-(4-amino-1-piperidinyl)-2-methoxyphenyl]-5-chloro-4-(1H-indol-3-yl)-]
ALK
  IC50: 22 nM

## C[C@@H](O)[C@@H](C)Oc1nc(Nc2ccc(S(=N)(=O)C3CC3)cc2)ncc1C(F)(F)F (stereo partly drawn) [BAY 1000394, 2-Butanol, 3-[[2-[[4-[[S(R)]—S-cyclopropylsulfonimidoyl]phenyl]amino]-5-(trifluoromethyl)-4-pyrimidinyl]oxy]-, (2R,3R)—]
CDK1/2/3/4/7/9
  IC50: 5 to 25 nM

## CN(C)Cc1cccc(N/C(=C2\C(=O)Nc3cc(C(=O)N(C)C)ccc32)c2ccccc2)c1 [BIX 02189, (Z)-3-((3-((dimethylamino)methyl)phenylamino)(phenyl)methylene)-N,N-dimethyl-2-oxoindoline-6-carboxamide]
[2]
  Inhibition of closely related kinases MEK1, MEK2, ERK2, and JNK2: does not inhibit

## Cc1cc2c(F)c(Oc3ncnn4cc(OC[C@@H](C)O)c(C)c34)ccc2[nH]1 [Brivanib, (R)-1-(4-(4-fluoro-2-methyl-1H-indol-5-yloxy)-5-methylpyrrolo[1,2-f][1,2,4]triazin-6-yloxy)propan-2-ol]
VEGFR-1 and FGFR-1
  Potency against VEGFR-1 and FGFR-1: moderate potency

## CNC(=O)c1c(F)cccc1Nc1nc(Nc2cc3c(cc2OC)CCN3C(=O)CN(C)C)nc2[nH]ccc12 [GSK1838705A, 2-(2-(1-(2-(dimethylamino)acetyl)-5-methoxyindolin-6-ylamino)-7H-pyrrolo[2,3-d]pyrimidin-4-ylamino)-6-fluoro-N-methylbenzamide]
Other protein kinases
  activity to other protein kinases: little activity

## C=CCc1ccc(O)c(-c2ccc(O)c(CC=C)c2)c1 [Honokiol, 2-(4-hydroxy-3-prop-2-enyl-phenyl)-4-prop-2-enyl-phenol]
Akt-phosphorylation
  Effect on Akt-phosphorylation: inhibits
ERK1/2 phosphorylation
  Effect on ERK1/2 phosphorylation: promotes

## COC(=O)[C@@]1(O)C[C@H]2O[C@]1(C)n1c3ccccc3c3c4c(c5c6ccccc6n2c5c31)C(=O)NC4 [K252a]
CaMK
  Ki: 1.8 nM
PKG
  Ki: 20 nM
PKA
  Ki: 18 nM
PKC
  Ki: 25 nM

## C[C@]12O[C@H](C[C@]1(O)CO)n1c3ccccc3c3c4c(c5c6ccccc6n2c5c31)CNC4=O [Lestaurtinib, (9S,10S,12R)-2,3,9,10,11,12-Hexahydro-10-hydroxy-10-(hydroxymethyl)-9-methyl-9,12-epoxy-1H-diindolo[1,2,3-fg:3′,2′,l′-kl]pyrrolo[3,4-i][1, 6]benzodiazocin-1-one]
[3]
  effect against myeloproliferative disorders in vivo: effective
STAT5 phosphorylation [4]
  IC50: 20 to 30 nM
HEL92.1.7 cells [5]
  IC50: 30 to 100 nM
[6]
  effect against myeloproliferative disorders in vivo: effective
STAT5 phosphorylation [7]
  IC50: 20 to 30 nM
HEL92.1.7 cells [8]
  IC50: 30 to 100 nM

## CN(C[C@@H]1COCCO1)S(=O)(=O)Nc1ccc2ccc3ncc(-c4cnn(C)c4)cc3c(=O)c2c1 [MK-2461, N-((2R)-1,4-Dioxan-2-ylmethyl)-N-methyl-N′-[3-(1-methyl-1H-pyrazol-4-yl)-5-oxo-5H-benzo[4,5]cyclohepta[1,2-b]pyridin-7-yl]sulfamide]
c-Met [9]
  Selectivity of c-Met targets versus FGFR1, FGFR2, FGFR3, PDGFRβ, KDR, Flt3, Flt4, TrkA, and TrkB: 8- to 30 fold
c-Met [10]
  IC50: 0.4 to 2.5 nM
Ron, Flt1
  Potency to Ron, Flt1: less potent

## O=C(Nc1ccc(OC(F)(F)F)cc1)c1sccc1NCc1ccnc2ccccc12 [OSI-930]
PDGFRα/β, Flt-3 and Abl
  Activity against PDGFRα/β, Flt-3 and Abl: low activity
Flt-1, c-Raf and Lck
  Potency to Flt-1, c-Raf and Lck: also potent
CSF-1R
  IC50: 15 nM

## COc1cccc(-c2cc(=O)c3ccccc3o2)c1N [PD98059, 2-(2-amino-3-methoxyphenyl)-4H-chromen-4-one]
ERK1 or ERK2
  Direct inhibition of ERK1 or ERK2: does not directly inhibit
MEK
  IC50: […]

## CC(=O)c1c(C)c2cnc(Nc3ccc(N4CCNCC4)cn3)nc2n(C2CCCC2)c1=O [PD0332991 Isethionate, Ethanesulfonic acid, 2-hydroxy-, compd. with 6-acetyl-8-cyclopentyl-5-methyl-2-[[5-(1-piperazinyl)-2-pyridinyl]amino]pyrido[2,3-d]pyrimidin-7(8H)-one (1:1)]
[11]
  activity against CDK1/2/5, EGFR, FGFR, PDGFR, and InsR: no activity

## N#C/C(=C(/N)Sc1ccc(N)cc1)c1ccccc1C(F)(F)F [SL327, (Z)-3-amino-3-(4-aminophenylthio)-2-(2-(trifluoromethyl)phenyl) acrylonitrile]
[12]
  Activity towards Erk1, MKK3, MKK4, c-JUN, PKC, PKA, or CamKII: no activity
MEK1
  IC50: ~180 nM
MEK2
  IC50: ~220 nM

## Cc1[nH]c(/C=C2\C(=O)Nc3ccccc32)c(C)c1CCC(=O)O [SU6668, (Z)-3-(2,4-dimethyl-5-((2-oxoindolin-3-ylidene)methyl)-1H-pyrrol-3-yl)propanoic acid]
[13]
  Activity against IGF-1R, Met, Src, Lck, Zap70, Abl and CDK2: little activity
[14]
  Inhibition of Flk-1 and FGFR1 trans-phosphorylation: strongly inhibits

## Cn1c(=O)c(F)c(Nc2ccc(I)cc2F)c2c(=O)n(C[C@@H](O)CO)cnc21 [TAK-733, (R)-3-(2,3-dihydroxypropyl)-6-fluoro-5-(2-fluoro-4-iodophenylamino)-8-methylpyrido[2,3-d]pyrimidine-4,7(3H,8H)-dione]
[15]
  Activity to Abl1, AKT3, c-RAF, CamK1, CDK2, c-Met: inactive
MEK1
  IC50: ~3.2 nM

## CC(=O)Nc1cccc(-n2c(=O)n(C3CC3)c(=O)c3c(Nc4ccc(I)cc4F)n(C)c(=O)c(C)c32)c1 [Trametinib, N-(3-{3-Cyclopropyl-5-[(2-fluoro-4-iodophenyl)amino]-6,8-dimethyl-2,4,7-trioxo-3,4,6,7-tetrahydropyrido[4,3-d]pyrimidin-1(2H)-yl}phenyl)acetamide]
c-Raf, B-Raf, ERK1/2
  Kinase activities of c-Raf, B-Raf, ERK1/2: does not inhibit

## COc1cc2ncc(-c3ccccc3)nc2cc1OC [Tyrphostin AG 1296, Quinoxaline, 6,7-dimethoxy-2-phenyl-]
EGFR
  Activity against EGFR: no activity
PDGFR
  IC50: 300 to 500 nM
